The results in this text go back to patent EP0244088A2, “1-Phenyl-3-benzazepine compounds and medicaments containing these compounds for treating gastrointestinal motility disorders” (SMITHKLINE BECKMAN CORPORATION, priority 1986, dated 1987).

One experiment has as its system lower esophageal sphincter (LES). The experiment is described as follows: Determination of LES pressure in the anesthetized dog. The format is in vivo, dogs. Conditions: Canis lupus familiaris, iv, Effective Dose 20 for increase in resting LES pressure, mean of individual ED20 values (N>=3), read-out: ED20 mcg/kg, i.v. The protocol: Method for Determination of LES Pressure in the Anesthetized Dog
Mongrel or beagle dogs, male and female, are anesthetized using sodium pentobarbital (35.0 mg/kg., I.V.). Sodium pentobarbital is then continuously infused (approximatemated 6.0 mg/kg/hr) to maintain deep anesthesia. Blood pressure is monitored via a catheter surgically implanted into the femoral artery and attached to a Gould's P231D transducer. A catheter is also implanted into the femoral vein to administer test drugs. Respiration is maintained by an endotracheal tube attached to a respirator. A continuously perfused manometric catheter system including a Dent sleeve to measure sphincter pressure (Dent, Gastroenterology 7l: 263-267, l976) is inserted into the esophagus and positioned so that intraluminal pressure is recorded from the body of the esophagus, the lower esophageal sphincter (LES) and the fundus of the stomach. The Dent sleeve catheter is perfused at a rate of 0.5 ml of water per minute for each lumen of the catheter by using an Arndorfer Hydraulic Capillary Infusion System. A cannula is implanted into the gastric antrum to allow drainage of the perfusate solution and prevent intestinal distension. Continuous tracings of esophageal, LES and fundus pressure are monitored on a Grass Polygraph (Model 7D). Correct positioning of the Dent sleeve is verified by noting a high pressure zone at the LES and by administration of an intravenous dose of 5-HT (usually l0-l5 mcg/kg) which contracts the LES while having little or no recordable effect on either the body of the esophagus or the fundus. After verification of placement of the sleeve, the animal is allowed to stabilize for approximately 30 minutes.
Compounds are administered intravenously, intraduodenally or intragastrically. In most cases, succeeding doses of the same or different compounds are given only after the LES pressure has returned to approximate predosing baseline values. In all cases, the magnitude of change in LES pressure is determined from the baseline pressure immediately prior to each treatment to the maximum pressure during treatment. Since the compounds used usually produce an immediate effect on LES pressure, no pretreatment time prior to measurement is necessary during this testing.
Direct assay techniques are used to estimate an Effective Dose 20 (ED₂₀) for the test compound in individual animals. The mean ED₂₀ and 95% confidence limits are determined using the individual ED₂₀ values from a group of animals (N=≧3) that received the same treatment.
`Oc1cc2c(cc1C(F)(F)F)CCNCC2c1ccccc1` (stereo not drawn) [compound 7, 8-Hydroxy-l-phenyl-7-trifluoromethyl-2,3,4,5-tetrahydro-lH-3-benzazepine]: the ED20 turned out to be 0.02 mg/kg.
The same measure, in the same setting: the same measure for `OCc1cc2c(cc1O)C(c1ccccc1)CNCC2` (stereo not drawn) [compound 14, 8-hydroxy-7-hydroxymethyl-l-phenyl-2,3,4,5-tetrahydro-lH-3-benzazepine]: 0.1 mg/kg; for `CC(=O)Nc1cc2c(cc1O)C(c1ccccc1)CNCC2` (stereo not drawn) [compound 16, 7-Acetamido-8-hydroxy-l-phenyl-2,3,4,5-tetrahydro-lH-3-benzazepine]: below 2 mg/kg.
For the compound `Cc1cc2c(cc1O)C(c1ccccc1)CNCC2` (stereo not drawn) [compound 5, 8-Hydroxy-7-methyl-l-phenyl-2,3,4,5-tetrahydro-lH-3-benzazepine], the ED20 amounted to 0.026 mg/kg.
For `Oc1cc2c(cc1Br)CCNCC2c1ccccc1` (stereo not drawn) [compound 4, 7-Bromo-8-hydroxy-l-phenyl-2,3,4,5-tetrahydro-lH-3-benzazepine], the ED20 amounted to 0.016 mg/kg.
Still for that read-out and setting: the same measure for `COCc1cc2c(cc1O)C(c1ccccc1)CNCC2` (stereo not drawn) [compound 13, 8-hydroxy-7-methoxymethyl-l-phenyl-2,3,4,5-tetrahydro-lH-3-benzazepine]: below 0.05 mg/kg.
Same read-out and setting: the same measure for `CN1CCc2cc(Cl)c(Cl)cc2C(c2ccccc2)C1` (stereo not shown) [compound 9]: 0.623 mg/kg; for `CS(=O)(=O)Nc1cc2c(cc1O)CCNCC2c1ccccc1` (stereo not drawn) [compound 15, 7-hydroxy-8-methanesulfonamido-l-phenyl-2,3,4,5-tetrahydro-lH-3-benzazepine]: 0.5 mg/kg; for `CS(=O)(=O)c1cc2c(cc1O)CCNCC2c1ccccc1` (stereo not drawn) [compound 2, 7-Hydroxy-8-methylsulfonyl-l-phenyl-2,3,4,5-tetrahydro-lH-3-benzazepine]: 0.317 mg/kg.
Same read-out and setting: the same measure for `Cc1cc2c(cc1O)C(c1ccc(O)cc1)CNCC2` (stereo not drawn) [compound 11, 8-Hydroxy-l-(4-hydroxyphenyl)-7-methyl-2,3,4,5-tetrahydro-lH-3-benzazepine]: 0.044 mg/kg; for `Oc1cc2c(cc1O)C(c1ccccc1)CNCC2` (stereo not drawn) [compound 10, 7,8-dihydroxy-l-phenyl-2,3,4,5-tetrahydro-lH-3-benzazepine]: 0.735 mg/kg.
For the compound `COc1cc2c(cc1Br)CCN(C)CC2c1ccccc1` (stereo not drawn) [compound 8, 7-Bromo-8-methoxy-3-methyl-l-phenyl-2,3,4,5-tetrahydro-lH-3-benzazepine], the ED20 amounted to 0.079 mg/kg.
Still for that read-out and setting: the figure for `CSc1cc2c(cc1O)C(c1ccccc1)CNCC2` (stereo not drawn) [compound 6, 8-hydroxy-7-methylthio-l-phenyl-2,3,4,5-tetrahydro-lH-3-benzazepine] is 0.017 mg/kg.
Regarding `Oc1cc(Cl)c2c(c1)C(c1ccccc1)CNCC2` (stereo not drawn) [compound 1, 6-Chloro-8-hydroxy-l-phenyl-2,3,4,5-tetrahydro-lH-3-benzazepine], the ED20 stood at 0.445 mg/kg.
For `CS(=O)(=O)c1cc2c(cc1O)C(c1ccccc1)CNCC2` (stereo not drawn) [compound 3, 8-Hydroxy-7-methylsulfonyl-l-phenyl-2,3,4,5-tetrahydro-lH-3-benzazepine], the ED20 is 0.05 mg/kg.

Staying with this experiment, now noted: at 250 (mcg/kg per column head), i.g.
For the compound `COc1cc2c(cc1S(C)(=O)=O)CCNCC2c1ccccc1` (stereo not drawn) [compound 12, 8-Methoxy-7-methylsulfonyl-l-phenyl-2,3,4,5-tetrahydro-lH-3-benzazepine], the “change in LES pressure (baseline to maximum during treatment)” value was 15 mm Hg at 250 (i.g.).
